These results are taken from patent US20250121099A1, “CLOSO-DODECAIODODECABORATE COMPLEXES AND METHODS OF USE FOR SAME” (The Regents of the University of California, priority 2022, published 2025).

Entries after “also recorded” stand apart in the source; their conditions may differ. Like-named read-outs stand apart in the source and are kept apart here.

A word on the IC50: it is the concentration needed to halve the response being measured.

The conditions of series [1]: cited from earlier work.
Series [2] can be described thus: Stability of Na2B12I12: human RBCs (11B NMR). The format is in vitro ADME. The conditions noted are these: 24-hour incubation at room temperature with suspension of human RBCs. The text has this:
(§1) General methods. Na2B12I12 was obtained from Katchem, γ-cyclodextrin (γ-CD) was obtained from Combi-Blocks, 2-hydroxypropyl-γ-cyclodextrin (HP-γ-CD; 0.6 functionalized, average Mw=1580 Da) was obtained from Sigma-Aldrich, phosphate-buffered saline (PBS) was obtained from Fisher Scientific. The reagents were used as received. D2O was obtained from Cambridge Isotopes. Washed single-donor human red blood cells (RBCs) were obtained from Innovative Research. These are RBCs that have been separated from type 0 positive whole blood and resuspended in Alsever's Solution. Defibrinated bovine blood was obtained from HemoStat Laboratories. All experiments were performed under ambient conditions. NMR spectra were collected using a Bruker Avance III HD 500 spectrometer equipped with a multinuclear Smart Probe. The frequencies of the ^1H and ^11B NMR signals are reported in ppm as chemical shifts from TMS and BF3·Et2O, respectively. Electronic absorption spectra were recorded on VWR UV-6300PC double beam spectrophotometer. […] Each sample was spiked with D2O and analyzed by ^11B NMR spectroscopy. […] The absorbance of this solution was measured from 700 to 350 nm. The subsequent samples were then measured in turn. […] The absorbance corresponding to 100% lysis was confirmed by adding a 10 μL aliquot of freshly resuspended RBCs to 250 μL of hemolysis buffer (0.15 M NH4Cl and 10 mM KHCO3). […]

The next series relates to mice. The note with it: cited from earlier work.
In series [3] the test system is human red blood cells (RBCs). Put plainly: Hemolytic activity of Na2B12I12 (Hb release from RBCs). Format: cell-based.
Source text: as §1, with “spectrophotometer. Stability of Na2B12I12: refluxing PBS. A 500 μL aliquot of a 10 mM solution of Na2B12I12 in PBS (pH 7.4) was placed in an oil bath pre-heated to 100° C. After incubating in this bath for 1 h, the sample was removed, cooled to room temperature, and spiked with 50 μL D2O prior to acquiring a ^11B NMR spectrum. Stability of Na2B12I12: human RBCs. A 275 μL aliquot of a 20 mM solution of Na2B12I12 in PBS (pH 7.4) was added to a 225 μL suspension of human RBCs. The mixture was allowed to stand at room temperature for 24 h. It was then spiked with 50 μL D2O prior to acquiring a ^11B NMR spectrum. […] Stability of Na2B12I12: bovine serum. A 1 mL aliquot of defibrinated bovine blood was centrifuged for 15 s at 15,850×g. A 225 μL aliquot of the serum supernatant was combined with a 275 μL aliquot of a 20 mM solution of Na2B12I12 in PBS (pH 7.4). The mixture was allowed to stand at room temperature for 24 h. It was then spiked with 50 μL D2O prior to acquiring a ^11B NMR spectrum. Stability of Na2B12I12: bovine blood. A 225 μL aliquot of defibrinated bovine blood was combined with a 275 μL aliquot of a 20 mM solution of Na2B12I12 in PBS (pH 7.4). The mixture was allowed to stand at room temperature for 24 h. It was then spiked with 50 μL D2O prior to acquiring a ^11B NMR spectrum. Job plot of HP-γ-CD and Na2B12I12. Solutions of Na2B12I12 (20 mM) and […] (20 mM) were prepared in PBS (pH 7.4).” for “spectrophotometer.”

For another series, the system named is cats. The note with it: cited from earlier work.
Series [4] can be described thus: Stability of Na2B12I12: bovine blood (11B NMR). The format is in vitro ADME. The note with it: 24-hour incubation at room temperature with defibrinated bovine blood.
Source text: as §1

Series [5] in a line: Stability of Na2B12I12: bovine serum (11B NMR). The format is in vitro ADME. The conditions noted are these: 24-hour incubation at room temperature with bovine serum.
Source text: as §1

Series [6] in a line: Stability of Na2B12I12: refluxing PBS (11B NMR). The conditions noted are these: refluxing in PBS pH 7.4 (100° C.) for 1 hour. Format: physicochemical.
Source text: as §1

Take “closo-dodecaiodododecaborate [B12I12^2−]”: the chemical stability entry in series [1] (heating to 85° C. in 5M NaOH), in series [1] (heating to 150° C. in H2SO4) and in series [1] (treatment with Cl2 gas) was “unchanged” each time.

Regarding “closo-dodecaiodododecaborate sodium [Na2B12I12]”, the “stability (new 11B NMR signals)” value is on record as “no additional signals appear; also recorded: absence of new signals” in series [2], “no additional signals appear; also recorded: absence of new signals” in series [4], “no additional signals appear; also recorded: absence of new signals” in series [5] and “lack of new ^11B NMR signals” in series [6]. For the same substance, the toxicity result in the series with mice and in the series on cats was “toxic” in each case. The hemolysis result in series [3] (100 mM Na2B12I12, no cyclodextrin, human RBCs) is reported as “rapid hemolysis; also recorded: complete hemolysis”. Also, the “concentrations at which hemolysis is not induced” value in series [3] (Na2B12I12 alone) is on record as “below 6 mM”. Also, in series [3] (PBS), the “concentration of PBS solutions that induce hemolysis” value is “greater than 50 mM”. Moreover, in series [3] (human RBCs in PBS pH 7.4, 10 s exposure, three replicates, read-out: IC50 (proportion of RBCs lysed, absorption of supernatant at 413 nm, logistic regression) (converted)), the IC50 was 66.3 mM.
